Experimental data taken from patent US8912195B2, “Alkyl amides as HIV attachment inhibitors” (priority 2010, dated 2014).
Read-outs that look alike come from different tables or passages of the source.

Test system: single-round infectious reporter virus with HIV-1 LAI envelope
Experiment: Single-round infectious HIV-1 LAI luciferase reporter virus infection of MT2 cells
Type: cell-based
Settings: Human immunodeficiency virus 1, MT2, 72 h
From the text: • Virus production—Human embryonic Kidney cell line, 293T (HEK 293T), was propagated in Dulbecco's Modified Eagle Medium (Invitrogen, Carlsbad, Calif.) containing 10% fetal Bovine serum (FBS, Sigma, St. Louis, Mo.). The human T-cell leukemia cell MT2 (AIDS Research and Reference Reagent Program, Cat. 237) was propagated in RPMI 1640 (Invitrogen, Carlsbad, Calif.) containing 10% fetal bovine serum (FBS, Hyclone, Logan, Utah) • Virus infection—Single-round infectious reporter virus was produced by co-transfecting HEK 293T cells with plasmide expressing the HIV-1 LAI envelope along with a plasmid containing an HIV-1 LAI proviral cDNA with the envelope gene replaced by a firefly luciferase reporter gene (Chen et al, Ref 41). Transfections were performed using lipofectAMINE PLUS reagent as described by the manufacturer (Invitrogen, Carlsbad, Calif.).
• 1. MT2 cells were plated in black, 384 well plates at a cell density of 5×10^3 cells per well in 25 μl RPMI 1640 containing 10% FBS. • 2. Compound (diluted in dimethylsulfoxide and growth medium) was added to cells at 12.5 μl/well, so that the final assay concentration would be ≦50 nM. • 3. 12.5 μl of single-round infectious reporter virus in Dulbecco's Modified Eagle Medium was added to the plated cells and compound at an approximate multiplicity of infection (MOI) of 0.01, resulting in a final volume of 50 μl per well. • 4. Virus-infected cells were incubated at 37 degrees Celsius, in a CO2 incubator, and harvested 72 h after infection. • 5. Viral infection was monitored by measuring luciferase expression in the infected cells using a luciferase reporter gene assay kit (Steady-Glo, Promega, Madison, Wis.) as described by the manufacturer. Luciferase activity was then quantified by measuring luminescence using an EnVision Multilabel Plate Readers (PerkinElmer, Waltham, Mass.). • 6. The percent inhibition for each compound was calculated by quantifying the level of luciferase expression in cells infected in the presence of each compound as a percentage of that observed for cells infected in the absence of compound and subtracting such a determined value from 100. • 7. An EC50 provides a method for comparing the antiviral potency of the compounds of this disclosure. The effective concentration for fifty percent inhibition (EC50) was calculated with the Microsoft Excel Xlfit curve fitting software. For each compound, curves were generated from percent inhibition calculated at 10 different concentrations by using a four paramenter logistic model (model 205). Table 1 is the key for the data in Table 2.

[1] = read-out: EC50 Group from Table 1

Row | Compound | EC50 [1] | EC50
1 | CC(C)CC(=O)N1CCN(C(=O)C(=O)c2c[nH]c3c(-n4ccnn4)ncc(F)c23)CC1 [Compound 1001, 1-(4-fluoro-7-(1H-1,2,3-triazol-1-yl)-1H-pyrrolo[2,3-c]pyridin-3-yl)-2-(4-(3-methylbutanoyl)piperazin-1-yl)ethane-1,2-dione] | < 500 nM | –
2 | COc1cnc(-n2ccnn2)c2[nH]cc(C(=O)C(=O)N3CCN(C(=O)C4CCCCC4)CC3)c12 [Compound 1002, 1-(4-(cyclohexanecarbonyl)piperazin-1-yl)-2-(4-methoxy-7-(1H-1,2,3-triazol-1-yl)-1H-pyrrolo[2,3-c]pyridin-3-yl)ethane-1,2-dione] | < 500 nM | –
3 | COc1cnc(-n2ccnn2)c2[nH]cc(C(=O)C(=O)N3CCN(C(=O)[C@]45C[C@H]6C[C@H](C[C@H](C6)C4)C5)CC3)c12 [Compound 1003] | < 500 nM | –
4 | COc1cnc(-n2ccnn2)c2[nH]cc(C(=O)C(=O)N3CCN(C(=O)C4CCCCCC4)CC3)c12 [Compound 1004, 1-(4-(cycloheptanecarbonyl)piperazin-1-yl)-2-(4-methoxy-7-(1H-1,2,3-triazol-1-yl)-1H-pyrrolo[2,3-c]pyridin-3-yl)ethane-1,2-dione] | < 500 nM | 0.14 nM
5 | CC1CCCC(C(=O)N2CCN(C(=O)C(=O)c3c[nH]c4c(-n5ccnn5)ncc(F)c34)CC2)C1 (stereo not shown) [Compound 2001] | < 500 nM | –
6 | O=C(C(=O)N1CCN(C(=O)C2CCCO2)CC1)c1c[nH]c2c(-n3ccnn3)ncc(F)c12 (stereo not shown) [Compound 2002] | < 500 nM | –
7 | CC1CCCCC1C(=O)N1CCN(C(=O)C(=O)c2c[nH]c3c(-n4ccnn4)ncc(F)c23)CC1 (stereo not shown) [Compound 2003] | < 500 nM | –
8 | O=C(C(=O)N1CCN(C(=O)C23CC4CC(CC2C4)C3)CC1)c1c[nH]c2c(-n3ccnn3)ncc(F)c12 [Compound 2004] | < 500 nM | 1.15 nM
9 | O=C(C(=O)N1CCN(C(=O)C2CCCCCC2)CC1)c1c[nH]c2c(-n3ccnn3)ncc(F)c12 [Compound 2005] | < 500 nM | 0.36 nM
10 | N[C@H]1CCCC[C@@H]1C(=O)N1CCN(C(=O)C(=O)c2c[nH]c3c(-n4ccnn4)ncc(F)c23)CC1 [Compound 2006] | > 500 nM | –
11 | C[C@]1(C(=O)N2CCN(C(=O)C(=O)c3c[nH]c4c(-n5ccnn5)ncc(F)c34)CC2)CCCN1 [Compound 2007] | > 500 nM | –
12 | O=C(C(=O)N1CCN(C(=O)C2CC3CCC2C(O)C3)CC1)c1c[nH]c2c(-n3ccnn3)ncc(F)c12 (stereo not shown) [Compound 2008] | < 500 nM | 5.1 nM
13 | CC(C)(C)C1CCC(C(=O)N2CCN(C(=O)C(=O)c3c[nH]c4c(-n5ccnn5)ncc(F)c34)CC2)CC1 (stereo not shown) [Compound 2009] | > 500 nM | –
14 | O=C(C(=O)N1CCN(C(=O)C2C[C@H]3C[C@@H]2CCC3O)CC1)c1c[nH]c2c(-n3ccnn3)ncc(F)c12 (stereo partly shown) [Compound 2010] | < 500 nM | –
15 | CC(C)=C[C@@H]1[C@@H](C(=O)N2CCN(C(=O)C(=O)c3c[nH]c4c(-n5ccnn5)ncc(F)c34)CC2)C1(C)C [Compound 2011] | > 500 nM | –
16 | C[C@H]1CC[C@H](C(=O)N2CCN(C(=O)C(=O)c3c[nH]c4c(-n5ccnn5)ncc(F)c34)CC2)CC1 [Compound 2012] | < 500 nM | –
17 | NC1(C(=O)N2CCN(C(=O)C(=O)c3c[nH]c4c(-n5ccnn5)ncc(F)c34)CC2)CCCC1 [Compound 2013] | < 500 nM | 451 nM
18 | O=C(C(=O)N1CCN(C(=O)C2CCOCC2)CC1)c1c[nH]c2c(-n3ccnn3)ncc(F)c12 [Compound 2014] | < 500 nM | 12.5 nM
19 | O=C(C(=O)N1CCN(C(=O)C2CCOC2)CC1)c1c[nH]c2c(-n3ccnn3)ncc(F)c12 (stereo not shown) [Compound 2015] | < 500 nM | –
20 | O=C(C(=O)N1CCN(C(=O)C23CC4CC(CC(C4)C2)C3)CC1)c1c[nH]c2c(-n3ccnn3)ncc(F)c12 [Compound 2016] | < 500 nM | –
21 | O=C(C(=O)N1CCN(C(=O)C2CCCCC2)CC1)c1c[nH]c2c(-n3ccnn3)ncc(F)c12 [Compound 2017] | < 500 nM | 0.11 nM
22 | O=C(C(=O)N1CCN(C(=O)C2CCC(O)CC2)CC1)c1c[nH]c2c(-n3ccnn3)ncc(F)c12 (stereo not shown) [Compound 2018] | < 500 nM | –
23 | O=C(C(=O)N1CCN(C(=O)[C@H](O)c2ccccc2)CC1)c1c[nH]c2c(-n3ccnn3)ncc(F)c12 [Compound 2019] | < 500 nM | 344 nM
24 | CN1CCC(C(=O)N2CCN(C(=O)C(=O)c3c[nH]c4c(-n5ccnn5)ncc(F)c34)CC2)CC1 [Compound 2020] | > 500 nM | –
25 | CN1CCCC(C(=O)N2CCN(C(=O)C(=O)c3c[nH]c4c(-n5ccnn5)ncc(F)c34)CC2)C1 (stereo not shown) [Compound 2021] | < 500 nM | 76.9 nM

Row | Compound | EC50 [1] | EC50
26 | O=C(C(=O)N1CCN(C(=O)C2CCC(F)(F)CC2)CC1)c1c[nH]c2c(-n3ccnn3)ncc(F)c12 [Compound 2022] | < 500 nM | –
27 | O=C(C(=O)N1CCN(C(=O)[C@@H](O)c2ccccc2)CC1)c1c[nH]c2c(-n3ccnn3)ncc(F)c12 [Compound 2023] | < 500 nM | –
28 | O=C(C(=O)N1CCN(C(=O)C2CCCOC2)CC1)c1c[nH]c2c(-n3ccnn3)ncc(F)c12 (stereo not shown) [Compound 2024] | < 500 nM | –
29 | CC1(C)CC(C(=O)N2CCN(C(=O)C(=O)c3c[nH]c4c(-n5ccnn5)ncc(F)c34)CC2)CC(C)(C)N1 [Compound 2025] | > 500 nM | –
30 | CC(C)(C)OC(=O)N[C@@H](C(=O)N1CCN(C(=O)C(=O)c2c[nH]c3c(-n4ccnn4)ncc(F)c23)CC1)c1ccccc1 [Compound 2026] | > 500 nM | –
31 | CC[C@@]12CC3C[C@@](O)(C1)C[C@](C(=O)N1CCN(C(=O)C(=O)c4c[nH]c5c(-n6ccnn6)ncc(F)c45)CC1)(C3)C2 [Compound 2027] | < 500 nM | –
32 | O=CN1CCCC(C(=O)N2CCN(C(=O)C(=O)c3c[nH]c4c(-n5ccnn5)ncc(F)c34)CC2)C1 (stereo not shown) [Compound 2028] | < 500 nM | 25.5 nM
33 | CN1CCCCC1C(=O)N1CCN(C(=O)C(=O)c2c[nH]c3c(-n4ccnn4)ncc(F)c23)CC1 (stereo not shown) [Compound 2029] | > 500 nM | –
34 | CN1CCC[C@H]1C(=O)N1CCN(C(=O)C(=O)c2c[nH]c3c(-n4ccnn4)ncc(F)c23)CC1 [Compound 2030] | > 500 nM | –
35 | CC(C)(C)OC(=O)N[C@H](C(=O)N1CCN(C(=O)C(=O)c2c[nH]c3c(-n4ccnn4)ncc(F)c23)CC1)c1ccccc1 [Compound 2031] | > 500 nM | –
36 | C[C@]12C[C@]3(C)C[C@](N)(C1)C[C@](C(=O)N1CCN(C(=O)C(=O)c4c[nH]c5c(-n6ccnn6)ncc(F)c45)CC1)(C2)C3 [Compound 2032] | > 500 nM | –
37 | CC(C)(C)OC(=O)N1CCC(C(=O)N2CCN(C(=O)C(=O)c3c[nH]c4c(-n5ccnn5)ncc(F)c34)CC2)C1 (stereo not shown) [Compound 2033] | > 500 nM | –
38 | CC(C)(C)OC(=O)N1CCCC(C(=O)N2CCN(C(=O)C(=O)c3c[nH]c4c(-n5ccnn5)ncc(F)c34)CC2)C1 (stereo not shown) [Compound 2034] | > 500 nM | –
39 | CC(C)(C)OC(=O)N1CCC(C(=O)N2CCN(C(=O)C(=O)c3c[nH]c4c(-n5ccnn5)ncc(F)c34)CC2)CC1 [Compound 2035] | > 500 nM | –
40 | CN(C)[C@@H](C(=O)N1CCN(C(=O)C(=O)c2c[nH]c3c(-n4ccnn4)ncc(F)c23)CC1)c1ccccc1 [Compound 2036] | > 500 nM | –
41 | CN(C)[C@H](C(=O)N1CCN(C(=O)C(=O)c2c[nH]c3c(-n4ccnn4)ncc(F)c23)CC1)c1ccccc1 [Compound 2037] | > 500 nM | –
42 | O=C(C(=O)N1CCN(C(=O)C2CC2)CC1)c1c[nH]c2c(-n3ccnn3)ncc(F)c12 [Compound 2038] | < 500 nM | –
43 | CC(C)C(=O)N1CCN(C(=O)C(=O)c2c[nH]c3c(-n4ccnn4)ncc(F)c23)CC1 [Compound 2039] | < 500 nM | –
44 | CCCCCC(=O)N1CCN(C(=O)C(=O)c2c[nH]c3c(-n4cnc(C)n4)ncc(OC)c23)CC1 [Compound 2040] | < 500 nM | –
45 | COc1cnc(-n2cnc(C)n2)c2[nH]cc(C(=O)C(=O)N3CCN(C(=O)CCC4CCCC4)CC3)c12 [Compound 2041] | < 500 nM | –
46 | CCCCCC(=O)N1CCN(C(=O)C(=O)c2c[nH]c3c(-n4ccnn4)ncc(F)c23)CC1 [Compound 2042] | < 500 nM | –
47 | O=C(C(=O)N1CCN(C(=O)CCC2CCCC2)CC1)c1c[nH]c2c(-n3ccnn3)ncc(F)c12 [Compound 2043] | < 500 nM | –
48 | COCC(=O)N1CCN(C(=O)C(=O)c2c[nH]c3c(-n4ccnn4)ncc(F)c23)CC1 [Compound 2044] | < 500 nM | –
49 | CN(C)CC(=O)N1CCN(C(=O)C(=O)c2c[nH]c3c(-n4ccnn4)ncc(F)c23)CC1 [Compound 2045] | > 500 nM | –
50 | CCC(=O)N1CCN(C(=O)C(=O)c2c[nH]c3c(-n4ccnn4)ncc(F)c23)CC1 [Compound 2046] | < 500 nM | 6.88 nM
